± gives the standard deviation of the averaged measurements.
How the values were obtained:
Caco-2 [1] = test: cell viability relative to DMSO; higher = less toxic; settings: 72 h
Calu-3 [2] = test: as above; settings: 72 h
HepG2 [3] = test: as above; settings: 72 h
U2OS [4] = test: as above; settings: 72 h
Vero E6 [5] = test: as above; settings: 72 h
Caco-2 [6] = test: relative viability EC50 (midpoint between 100% and the lowest measured viability); higher = less toxic; settings: 72 h
Calu-3 [7] = test: as above; settings: 72 h
HepG2 [8] = test: as above; settings: 72 h
U2OS [9] = test: as above; settings: 72 h
Vero E6 [10] = test: as above; settings: 72 h
Caco-2 [11] = test: drug sensitivity score (DSS) for viability; higher = more toxic; extreme values may be limits of the assay; settings: 72 h
Calu-3 [12] = test: as above; settings: 72 h
HepG2 [13] = test: as above; settings: 72 h
U2OS [14] = test: as above; settings: 72 h
Vero E6 [15] = test: as above; settings: 72 h
[16] = test system: A549-ACE2 infected with SARS-CoV-2; test: cell count relative to DMSO; higher = less toxic; settings: 24 h
[17] = test system: A549-ACE2 infected with SARS-CoV-2; test: SARS-CoV-2 infection rate relative to DMSO; higher = more infection; settings: 24 h
A549-ACE2 [18] = test: phospholipidosis EC50; higher = less potent phospholipidosis inducer
A549-ACE2 [19] = test: drug-induced phospholipidosis relative to tamoxifen; higher = more phospholipidosis
[20] = test system: A549-ACE2 infected with SARS-CoV-2; test: morphology score (similarity to uninfected cells); higher = more like uninfected cells; settings: 24 h

CN1C(=O)C[C@@H](C(=O)N[C@@H](Cc2c[nH]cn2)C(=O)N2CCC[C@H]2C(N)=O)NC1=O [taltirelin]
cell viability [%]
Settings | Caco-2 [1] | Calu-3 [2] | HepG2 [3] | U2OS [4] | Vero E6 [5]
1 nM | 101 | 96.3 | 106 | 105 | 99
10 nM | 100 | 94.7 | 99.6 | 96.2 | 96.8
100 nM | 97.2 | 101 | 99 | 99.5 | 104
1000 nM | 97.6 | 97.8 | 104 | 98.1 | 97.4
10000 nM | 95.9 | 84.9 | 108 | 101 | 98.3

Settings | drug sensitivity score | relative viability EC50 [µM]
Caco-2 [6] | – | > 10
Caco-2 [11] | 0 | –
Calu-3 [7] | – | > 10
Calu-3 [12] | 0.5 | –
HepG2 [8] | – | > 10
HepG2 [13] | 0 | –
U2OS [9] | – | > 10
U2OS [14] | 0 | –
Vero E6 [10] | – | > 10
Vero E6 [15] | 0 | –

CCCCCCCCCCCCCCSCC(=O)O [tetradecylthioacetic-acid]
cell viability [%]
Settings | Caco-2 [1] | Calu-3 [2] | HepG2 [3] | U2OS [4] | Vero E6 [5]
1 nM | 93.1 | 95.2 | 90.8 | 98.1 | 103
10 nM | 104 | 102 | 102 | 101 | 95.6
100 nM | 104 | 99.1 | 86.4 | 93.5 | 98.2
1000 nM | 83.9 | 108 | 102 | 97.2 | 99.2
10000 nM | 108 | 109 | 119 | 100 | 94.6

Settings | drug sensitivity score | relative viability EC50 [µM]
Caco-2 [6] | – | > 10
Caco-2 [11] | 0 | –
Calu-3 [7] | – | > 10
Calu-3 [12] | 0 | –
HepG2 [8] | – | > 10
HepG2 [13] | 0 | –
U2OS [9] | – | > 10
U2OS [14] | 0 | –
Vero E6 [10] | – | > 10
Vero E6 [15] | 0 | –

c1ccc(C2CN3CCSC3=N2)cc1 (configuration not stated) [tetramisole]
cell viability [%]
Settings | Caco-2 [1] | Calu-3 [2] | HepG2 [3] | U2OS [4] | Vero E6 [5]
1 nM | 95 ± 7.1 | 98.7 ± 5 | 101.9 ± 0.14 | 99.8 ± 1.8 | 93.8 ± 2.8
10 nM | 102 ± 11 | 97.85 ± 0.92 | 95.6 ± 0.57 | 98.2 ± 2.3 | 98.5 ± 1.6
100 nM | 92.65 ± 0.78 | 99.7 ± 1.3 | 96.2 ± 3.5 | 98.3 ± 1.8 | 96.2 ± 3.3
1000 nM | 91.9 ± 8.6 | 110 ± 12 | 93.1 ± 5.7 | 97.9 ± 1.1 | 96.8 ± 0.57
10000 nM | 96.5 ± 1.7 | 94.7 ± 1.6 | 100 ± 4.2 | 100 ± 6.9 | 101 ± 1.1

Settings | drug sensitivity score | relative viability EC50 [µM]
Caco-2 [6] | – | > 10
Caco-2 [11] | 0.85 ± 1.2 | –
Calu-3 [7] | – | > 10
Calu-3 [12] | 0 | –
HepG2 [8] | – | > 10
HepG2 [13] | 0 | –
U2OS [9] | – | > 10
U2OS [14] | 0 | –
Vero E6 [10] | – | > 10
Vero E6 [15] | 0 | –

COc1cc(C[C@H]2c3cc(OC)c(OC)cc3CCN2C)c(Oc2cc3c(cc2OC)-c2c(OC)c(OC)cc4c2[C@H](C3)N(C)CC4)cc1OC [thaliblastine]
Settings | SARS-CoV-2 infection rate [%] | cell count [%] | cell viability [%] | morphology score | phospholipidosis EC50 [µM]
A549-ACE2 [18], 24 h | – | – | – | – | 1.3
A549-ACE2 [18], 48 h | – | – | – | – | 2.7
A549-ACE2 [18], 72 h | – | – | – | – | 6.76
Caco-2 [1], 1 nM | – | – | 88.3 | – | –
Caco-2 [1], 10 nM | – | – | 93.6 | – | –
Caco-2 [1], 100 nM | – | – | 104 | – | –
Caco-2 [1], 1000 nM | – | – | 102 | – | –
Caco-2 [1], 10000 nM | – | – | 86 | – | –
Calu-3 [2], 1 nM | – | – | 102 | – | –
Calu-3 [2], 10 nM | – | – | 109 | – | –
Calu-3 [2], 100 nM | – | – | 97.1 | – | –
Calu-3 [2], 1000 nM | – | – | 90.2 | – | –
Calu-3 [2], 10000 nM | – | – | 18.2 | – | –
HepG2 [3], 1 nM | – | – | 92.4 | – | –
HepG2 [3], 10 nM | – | – | 111 | – | –
HepG2 [3], 100 nM | – | – | 96.3 | – | –
HepG2 [3], 1000 nM | – | – | 105 | – | –
HepG2 [3], 10000 nM | – | – | 62 | – | –
U2OS [4], 1 nM | – | – | 94.4 | – | –
U2OS [4], 10 nM | – | – | 93.9 | – | –
U2OS [4], 100 nM | – | – | 100 | – | –
U2OS [4], 1000 nM | – | – | 96.6 | – | –
U2OS [4], 10000 nM | – | – | 83 | – | –
Vero E6 [5], 1 nM | – | – | 90.6 | – | –
Vero E6 [5], 10 nM | – | – | 100 | – | –
Vero E6 [5], 100 nM | – | – | 89.8 | – | –
Vero E6 [5], 1000 nM | – | – | 102 | – | –
Vero E6 [5], 10000 nM | – | – | 96.6 | – | –
[16], 0.3 µM | – | 109 | – | – | –
[16], 3 µM | – | 120 | – | – | –
[16], 10 µM | – | 122 | – | – | –
[16], 30 µM | – | 115 | – | – | –
[17], 0.3 µM | 95 | – | – | – | –
[17], 3 µM | 28 | – | – | – | –
[17], 10 µM | 21 | – | – | – | –
[17], 30 µM | 34 | – | – | – | –
[20], 0.3 µM | – | – | – | 0.32 | –
[20], 3 µM | – | – | – | 0.61 | –
[20], 10 µM | – | – | – | 0.29 | –
[20], 30 µM | – | – | – | -0.02 | –

drug-induced phospholipidosis [%], A549-ACE2 [19]
Settings | 0.3 µM | 0.833333 µM | 3.33333 µM | 6.66667 µM | 10 µM | 30 µM
24 h | 9.75 | 20.6 | 72.4 | 86.2 | 80.5 | 65.6
48 h | 11.1 | 12.9 | 77.4 | 95.4 | 104 | 120
72 h | 10.4 | 12.7 | 67.9 | 103 | 105 | 154

Settings | drug sensitivity score | relative viability EC50 [µM]
Caco-2 [6] | – | > 10
Caco-2 [11] | 0.1 | –
Calu-3 [7] | – | 2.18
Calu-3 [12] | 6.2 | –
HepG2 [13] | 1.5 | –
U2OS [9] | – | > 10
U2OS [14] | 0.8 | –
Vero E6 [10] | – | > 10
Vero E6 [15] | 0 | –

O=C(O)CNC(=O)C(CS)Cc1ccccc1 (configuration not stated) [thiorphan]
cell viability [%]
Settings | Caco-2 [1] | Calu-3 [2] | HepG2 [3] | U2OS [4] | Vero E6 [5]
1 nM | 107 | 103 | 94.2 | 99.4 | 107
10 nM | 99 | 99.5 | 90.9 | 103 | 95
100 nM | 86.2 | 98.6 | 99.7 | 98.7 | 94.3
1000 nM | 102 | 95.5 | 92.1 | 98.7 | 101
10000 nM | 110 | 114 | 95.7 | 96.9 | 104

Settings | drug sensitivity score | relative viability EC50 [µM]
Caco-2 [6] | – | > 10
Caco-2 [11] | 0 | –
Calu-3 [7] | – | > 10
Calu-3 [12] | 0 | –
HepG2 [8] | – | > 10
HepG2 [13] | 0 | –
U2OS [9] | – | > 10
U2OS [14] | 0 | –
Vero E6 [10] | – | > 10
Vero E6 [15] | 0 | –

O=C(Cn1c(=O)sc2ccc(Cl)cc21)N1CCN(CCO)CC1 [tiaramide]
cell viability [%]
Settings | Caco-2 [1] | Calu-3 [2] | HepG2 [3] | U2OS [4] | Vero E6 [5]
1 nM | 112 | 92.2 | 94.9 | 101 | 107
10 nM | 91.4 | 101 | 109 | 101 | 95.2
100 nM | 96.7 | 90.6 | 108 | 98.7 | 94.3
1000 nM | 96.3 | 92.4 | 88.8 | 100 | 101
10000 nM | 101 | 105 | 89.3 | 98.7 | 93.4

Settings | drug sensitivity score | relative viability EC50 [µM]
Caco-2 [6] | – | > 10
Caco-2 [11] | 0 | –
Calu-3 [7] | – | > 10
Calu-3 [12] | 0 | –
HepG2 [8] | – | > 10
HepG2 [13] | 0.2 | –
U2OS [9] | – | > 10
U2OS [14] | 0 | –
Vero E6 [10] | – | > 10
Vero E6 [15] | 0 | –

From the supplement of paper PMC13380429
